Data: PMC10406450 (Frontiers in Endocrinology, 2023)

System: CHO-hGLP-1R cells
Assay: Cell viability assay (resazurin)
Assay type: cell-based, Chinese hamster
Conditions: 48 h treatment, then 5 h resazurin dye, fluorescence 590 nm, concentrations up to 1000-fold above the EC50, 3 independent experiments
Experimental: CHO-hGLP-1R cells described above were plated at 10 000 cells per well in 96-well black clear-bottom poly-d-lysine-coated microtiter plates (Corning, USA). Growth medium comprised DMEM supplemented with 10% FBS (Sigma-Aldrich). […] Fluorescence emission was measured at 590 nm (560 nm excitation) using an Envision plate reader (Perkin Elmer, USA).

CN[C@@H]1C[C@H]2O[C@@](C)([C@@H]1OC)n1c3ccccc3c3c4c(c5c6ccccc6n2c5c31)C(=O)NC4 [staurosporine]
cytotoxicity (cell viability): expected effect on loss of cell viability
